From PubChem BioAssay (NCI)
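Method: 48-hour compound exposure of cells in 96-well plates, five concentrations, linear interpolation of endpoints. GI50: concentration for 50% inhibition of growth. TGI denotes the concentration required for complete inhibition of growth.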

What was measured:
Assay in all cases: NCI-60 cell line screen, 48 h
A498 renal = tested on: A498 renal
A549 NSCLC = tested on: A549 NSCLC
HCT-116 colon = tested on: HCT-116 colon
NCI-H23 lung = tested on: NCI-H23 lung
SK-MEL-28 melanoma = tested on: SK-MEL-28 melanoma
TK-10 renal = tested on: TK-10 renal
U251 CNS = tested on: U251 CNS
UO-31 renal = tested on: UO-31 renal
HOP-92 NSCLC = tested on: HOP-92 NSCLC
NCI-H226 lung = tested on: NCI-H226 lung

Row | SMILES | TGI (A498 renal) [µM] | TGI (A549 NSCLC) [µM] | TGI (HCT-116 colon) [µM] | TGI (NCI-H23 lung) [µM] | TGI (SK-MEL-28 melanoma) [µM] | TGI (TK-10 renal) [µM] | TGI (U251 CNS) [µM] | TGI (UO-31 renal) [µM] | GI50 (A549 NSCLC) [µM] | GI50 (HCT-116 colon) [µM] | GI50 (HOP-92 NSCLC) [µM] | TGI (HOP-92 NSCLC) [µM] | GI50 (NCI-H226 lung) [µM] | TGI (NCI-H226 lung) [µM] | GI50 (NCI-H23 lung) [µM] | GI50 (SK-MEL-28 melanoma) [µM] | GI50 (TK-10 renal) [µM] | GI50 (U251 CNS) [µM] | GI50 (UO-31 renal) [µM] | GI50 (A498 renal) [µM]
1 | COc1ccc(C(=O)O/N=C2\CCCC\C2=C/c2ccccc2)cc1 | > 100 | > 100 | > 100 | 41.5 | > 100 | > 100 | > 100 | > 100 |  |  |  |  |  |  |  |  |  |  |  | 
2 | C#Cc1cccc(NC(=O)Nc2ccccc2NC(=O)CCl)c1 |  | > 82.5 | > 82.5 | 48.5 | > 82.5 | > 82.5 | 33.1 | 21.6 | 25.4 | 24.5 | 14.8 | 44 | 16 | 34.1 | 16.9 | 23.7 | 25.5 | 15.4 | 11.1 | 
3 | CC(=O)NNc1nc(C)c(C(/C=C/c2ccc(/C=C/C(=N\NC(=O)c3ccncc3)c3sc(NNC(C)=O)nc3C)cc2)=N/NC(=O)c2ccncc2)s1 | > 100 | > 100 | > 100 | > 100 | > 100 | > 100 | > 100 | > 100 |  |  |  | > 100 |  | > 100 |  |  |  |  |  | 
4 | O=C(CC1Sc2ccccc2NC1=O)Nc1cccc(Cl)c1 (centres undefined) | > 100 | > 100 | > 100 | > 100 | 89.7 | > 100 | 82.8 | 82.5 |  |  |  | 86.1 |  | 90.8 |  |  |  |  |  | 
5 | c1ccc([CH2][Sn]([CH2]c2ccccc2)([S]c2cccc3cccnc23)[S]c2cccc3cccnc23)cc1 | 0.95 |  | 0.351 | 0.998 | 0.864 | 1.06 | 1.14 | 0.399 |  | 0.165 |  |  |  |  | 0.273 | 0.201 | 0.326 | 0.341 | 0.187 | 0.288
6 | COC(=O)C1=Cc2cc3c(cc2[C@H](c2ccc4c(c2)OCO4)C1C(=O)OC)OCO3 (some centres undefined) | 74 | > 100 | > 100 | > 100 | > 100 | > 100 | > 100 | > 100 |  |  |  | > 100 |  | > 100 |  |  |  |  |  | 
7 | O=C(Nc1ccc(Cl)c(Cl)c1)Nc1ccc(Cl)c([N+](=O)[O-])c1 | 4.47 | 8.27 | 3.18 | 2.69 | 4.62 | 6.9 | 4.3 | 2.92 | 1.41 | 0.813 | 0.66 | 2.07 | 1.3 | 5.54 | 0.698 | 1.3 | 1.42 | 1.13 | 0.83 | 1.37
8 | COc1ccc(C(=O)c2cc3c(N)c(C(=O)Nc4cccc(Cl)c4)sc3nc2C)cc1 | > 33.3 | > 33.3 | > 33.3 | > 33.3 | > 33.3 | > 33.3 | > 33.3 | > 33.3 | 1.67 | 1.45 | 30.7 | > 33.3 | 16 | > 33.3 | 2.53 | 3.03 | > 33.3 | 1.38 | 2.5 | 0.821
9 | COc1ccc(C(=O)CC2(O)C(=O)Nc3c(Cl)ccc(Cl)c32)cc1 (centres undefined) | 7.02 | > 100 | 23.9 | > 60.6 | > 100 | > 100 | > 62.3 | > 100 | 1.55 | 0.72 | 1.22 | 18.4 | 30.6 | > 100 | 4.61 | 6.22 | 8.98 | 2.33 | 6.65 | 0.599
10 | Cc1c(C(=O)/C=C/c2ccco2)[n+](=O)c2ccccc2n1[O-] | > 100 | > 100 | > 100 | > 100 | > 100 | > 100 |  | > 100 |  |  |  | > 100 |  | > 100 |  |  |  |  |  | 
11 | O=c1ccc2nc(-c3ccccc3)nn(-c3ccccc3)c-2c1 | 33.4 | 36.7 | 2.08 | 5.6 | 3.11 | 2.7 | 20.4 | 0.992 | 9.26 | 0.79 | 1.5 | 2.93 | 2 | 4.21 | 2.26 | 1.63 | 1.39 | 5.78 | 0.512 | 18.1
12 | CCN1CCC(C(=O)Nc2n[nH]c3nnc(-c4cccc(F)c4F)cc23)CC1 | > 6.6 | > 25 | > 25 | > 25 | > 18.4 | > 25 | > 25 | > 25 | 10.5 | 7.36 | 8.03 | > 23.9 | 3.41 | 11.9 | 16.5 | 8.35 | 11.3 | 6.17 | > 25 | 0.543
13 | CC(C)(O)Cn1c(=O)c(Oc2ccc(F)cc2F)cc2cnc(NC3CCOCC3)nc21 | > 25 | > 25 | > 25 | > 25 | > 25 | > 25 | > 25 | > 25 | > 25 | > 25 | 7.79 | > 25 | > 25 | > 25 | > 25 | > 25 | > 25 | > 25 | > 25 | > 14.7
14 | O=C1CCCC1C(=O)Nc1ccc2ccccc2c1 (centres undefined) | > 100 | > 100 | > 100 | > 100 | > 100 | > 100 | > 100 | > 100 |  |  |  | > 100 |  | > 100 |  |  |  |  |  | 
15 | COC(=O)C1=C(O)C(O)=C(C(=O)OC)CC1 | > 100 | > 100 | 28.9 | > 100 | > 100 | > 100 | > 100 | > 100 |  |  |  | > 100 |  | > 100 |  |  |  |  |  | 
16 | CN(C)C1(C#N)CCC2(CC1)OCCO2 | > 100 | > 100 | > 100 | > 100 | > 100 | > 100 | > 100 | > 100 |  |  |  | > 100 |  | > 100 |  |  |  |  |  | 
